For 29 compounds, MIC, MIC90 and Activity results are on record in ChEMBL document CHEMBL5537132, “Reassessing the putative molecular Target(s) of potent antitubercular 2-(Alkylsulfonyl)acetamides” (2024).

Converted amounts (≈) assume the structure as drawn.

Common to all, as to assay type: functional
The subject of assay [1] is Mycobacterium tuberculosis. Put plainly: Antitubercular activity against Mycobacterium tuberculosis.
Assay [2] has as its system Mycobacterium tuberculosis. Put plainly: Antitubercular activity against Mycobacterium tuberculosis H37Rv assessed as inhibition of bacterial growth by BACTEC radiometric assay.
The subject of assay [3] is Mycobacterium tuberculosis. Kind of assay: Antitubercular activity against Mycobacterium tuberculosis H37Rv assessed as minimum inhibitory concentration incubated for 5 days by resazurin staining based fluorescent plate reader analysis. As to conditions: 120 h, time 5 day.
Assay [4] deals with Mycobacterium tuberculosis. Kind of assay: Antitubercular activity against Mycobacterium tuberculosis H37Rv assessed as inhibition of bacterial growth by colorimetric microdilution broth assay.
Assay [5] concerns Mycobacterium tuberculosis. Put plainly: Antitubercular activity against Mycobacterium tuberculosis H37Rv assessed as bacterial growth incubated for 5 days by resazurin staining based fluorescent plate reader analysis relative to control. Conditions: time 5 day. For orientation: The colour change of resazurin is a common sign of viable cells or microbes.

Turning to `CCCCCCS(=O)(=O)CC(N)=O`, in assay [1], the MIC (usually the lowest concentration that inhibits growth of the organism) came out at 241 µM (≈ 50 µg/mL).

As for `NC(=O)CS(=O)(=O)CCCCc1ccccc1`, the MIC in assay [2] was more than 25 µg/mL; in assay [1] it was more than 100 µM.

For the compound `CCCCCCCCS(=O)(=O)CC(N)=O`, the MIC in assay [1] stood at 27 µM (≈ 6.35 µg/mL).

With `CCCCCCCCS(=O)(=O)CC(=O)O`, in assay [2], the minimum inhibitory concentration (MIC) is more than 25 µg/mL.

Compound `CCCCCCCCCCCCCCCCCCS(=O)(=O)CC(N)=O` yielded an MIC in assay [1] of more than 133 µM.

In the case of `CCCCCCCCCCS(=O)(=O)CC(N)=O`, the MIC90 (usually an inhibitory concentration at the 90% level, which refers to growth in some studies and to a panel of isolates in others) in assay [3] is 1.32 µg/mL (≈ 5.01 µM). Moreover, 2.9 µM (≈ 0.764 µg/mL) was the least that counted as inhibitory in assay [1] (MIC).

Compound `CCCCCCCS(=O)(=O)CC(N)=O` showed an MIC in assay [1] of more than 113 µM.

As to `CCCCCCCCCCCCS(=O)(=O)CC(N)=O`, in assay [1], the MIC came out at 43 µM (≈ 12.5 µg/mL).

The compound `CCCCCCCCCCCC(=O)NS(=O)(=O)OC[C@H]1O[C@@H](n2cnc3c(N)ncnc32)[C@H](O)[C@@H]1O` had an MIC in assay [1] of 0.2 µM (≈ 0.106 µg/mL).

With `NC[C@H]1O[C@@H](n2cnc3c(N)ncnc32)[C@H](O)[C@@H]1O`, the minimal inhibitory concentration (MIC) in assay [4] was more than 100 µg/mL.

Consider `NC(=O)CS(=O)(=O)CCCCCc1ccccc1`, for which the MIC is 12.5 µg/mL (≈ 46.4 µM) in assay [2] and 46 µM (≈ 12.4 µg/mL) in assay [1].

In turn, `CCCCCCCCCS(=O)(=O)CC(N)=O` gave an MIC in assay [1] of 12 µM (≈ 2.99 µg/mL).

Compound `CCCCCCCCCCCCOP(=O)(O)OC[C@H]1O[C@@H](n2cnc3c(N)ncnc32)[C@H](O)[C@@H]1O` registered an MIC in assay [1] of 1.9 µM (≈ 0.98 µg/mL).

`Nc1ncnc2c1ncn2[C@@H]1O[C@H](COS(=O)(=O)NC(=O)CCCCCCCCCCOc2ccccc2)[C@@H](O)[C@H]1O` had an MIC in assay [1] of 3.1 µM (≈ 1.88 µg/mL).

The compound `CCCCCCCCCOCC(=O)NS(=O)(=O)OC[C@H]1O[C@@H](n2cnc3c(N)ncnc32)[C@H](O)[C@@H]1O` displayed an MIC in assay [1] of 0.1 µM (≈ 0.0531 µg/mL).

On to `[N-]=[N+]=NCCCCCCCCCCCC(=O)NS(=O)(=O)OC[C@H]1O[C@@H](n2cnc3c(N)ncnc32)[C@H](O)[C@@H]1O`, for which the MIC in assay [1] is 0.2 µM (≈ 0.114 µg/mL).

In the case of `NC(=O)CS(=O)(=O)CCCCCCC1C=CC=CC1` (stereo not drawn), the figures for the MIC in assay [2] and in assay [1] were 12.5 µg/mL (≈ 43.8 µM) and 44 µM (≈ 12.6 µg/mL), respectively.

Consider `CCCCCCCCCCS(=O)(=O)CC(=O)NC[C@H]1O[C@@H](n2cnc3c(N)ncnc32)[C@H](O)[C@@H]1O`, for which the Activity in assay [5] turned out to be 100%.

Take `CCCCCCCCCCS(=O)(=O)Cc1cn(C[C@H]2O[C@H](OCc3ccccc3)[C@@H](O)[C@@H](O)[C@@H]2O)nn1`: the MIC90 in assay [3] was more than 50 µg/mL.

Regarding `CCCCCCCCCCS(=O)(=O)Cc1cn(CCCCn2c(=O)oc3ccccc32)nn1`, the MIC90 in assay [3] is more than 50 µg/mL.

For the compound `CCCCCCCCCCS(=O)(=O)Cc1nc2ccccc2oc1=O`, the MIC90 in assay [3] came to 5.85 µg/mL (≈ 16 µM).

Regarding `CCCCCCCCCCCS(=O)(=O)CC(N)=O`, the MIC90 in assay [3] was determined as 1.39 µg/mL (≈ 5.01 µM).

Consider `CCCCCCCCCCS(=O)(=O)CC(=O)NC[C@H]1O[C@H](OCc2ccccc2)[C@@H](O)[C@@H](O)[C@@H]1O`, for which the MIC90 in assay [3] is more than 50 µg/mL.

Take `NC(=O)CS(=O)(=O)CCCCCCCCCCc1ccccc1`: the MIC90 in assay [3] is 13 µg/mL (≈ 38.3 µM).

On to `CCCCCCCCCCCCCCCCCCCCOP(=O)(O)OC[C@H]1O[C@@H](n2cnc3c(N)ncnc32)[C@H](O)[C@@H]1O`, for which, in assay [1], inhibition of growth (MIC) required 0.9 µM (≈ 0.565 µg/mL).

On to `CCCCCCCCCCS(=O)(=O)Cc1cn(CCCn2cnc3ccccc32)nn1`, for which, in assay [3], the MIC90 is more than 50 µg/mL.

As to `CCCCCCCCCCS(=O)(=O)Cc1cn(C[C@H]2O[C@@H](n3cnc4c(N)ncnc43)[C@H](O)[C@@H]2O)nn1`, the MIC90 in assay [3] was more than 50 µg/mL.

As for `NC(=O)CS(=O)(=O)Cc1ccccc1`, the MIC90 in assay [3] is more than 50 µg/mL.

Take `NC(=O)CS(=O)(=O)CCCCCCCCc1ccccc1`: the MIC90 in assay [3] worked out at 16 µg/mL (≈ 51.4 µM).
